According to PubChem BioAssay AID1324 (NMMLSC, 2008):
Active and inactive are the calls of the source. The rule behind the calls is not given here.

target: glutathione S-transferase (GST-GSH binding); experiment: GST–glutathione interaction disruption – biochemical, multiplex beads, flow cytometry, HPSMTB buffer, profiling panel (AID 1324); settings: multiplex bead flow cytometry, MCF;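 note: glutathione beads loaded with GST-green fluorescent protein and no fluorescent Bim peptide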

SMILES | EC50
COc1cc(/C=N/Nc2nn3cnnc3c3ccccc23)ccc1O | 2.36 µM
Cc1ccnc(SCc2cc(=O)c(OC(=O)c3ccc(Cl)c([N+](=O)[O-])c3)co2)n1 | inactive

same assay, conditions: multiplex bead flow cytometry, MCF, hits give high values, concentration not given here

SMILES | percent span inhibition
CC1=NN(c2ccc(C)cc2)C(=O)/C1=C\c1ccc(Br)s1 | inactive
CCOC(=O)c1cccc(Nc2ncnc3ccccc23)c1 | inactive
C=CCn1c(C)cc(-c2csc(NC)n2)c1C | inactive
CCn1c(SCC(=O)Nc2ccccc2-c2ccccc2)nnc1-c1ccoc1C | inactive
CCOc1c(Cl)cc(CNc2ccc(N3CCCC3)cc2)cc1OC | inactive
COc1ccc(C2CC(=O)C3=C(C2)Nc2ccccc2NC3c2coc3ccccc3c2=O)cc1OC (stereo unspecified) | inactive
Nc1ccc(-c2cn3cccnc3n2)cc1 | inactive
CN1CCc2cccc3c2[C@H]1Cc1ccc(O)c(O)c1-3 | inactive
CN=c1scc(-c2cccs2)n1/N=C/c1ccc(O)c(O)c1O | inactive
NCC(c1ccccc1)c1c[nH]c2ccccc12 (stereo unspecified) | inactive
COC(=O)c1ccc(-n2nnnc2SCC(=O)Nc2cc(OC)ccc2OC)cc1 | inactive
COc1ccc(Cc2c(O)nc(SC)n(C(C)=O)c2=O)cc1 | inactive
Nc1c(C(=O)NCc2ccco2)sc2nc3c(cc12)C(=O)CCC3 | inactive
O=[N+]([O-])c1c(NCCCO)cc(Sc2nc3ccccc3s2)c2nonc12 | inactive
C=CCn1c(SCC(=O)Nc2ccc3c(c2)OCO3)nnc1-c1cc(Br)ccc1O | inactive
O=C(Nc1ccc(N2CCOCC2)cc1)Nc1ccc2nc(-c3ccco3)c(-c3ccco3)nc2c1 | inactive
Cc1ccccc1-n1nc(SCC(=O)O)sc1=S | inactive
Cc1ccc(/C=N/N(C)C2=NS(=O)(=O)c3ccccc32)o1 | inactive
COc1cc(/C=C2/NC(=O)N(Cc3ccccc3F)C2=O)cc(OC)c1O | inactive
Cc1cc(C)c[n+](-c2nc3ccccc3nc2C(=C=[N-])C#N)c1 | inactive

SMILES | percent span inhibition
COc1ccc(NC(=O)COc2ncnc3ccccc23)cc1S(=O)(=O)N1CCOCC1 | inactive
Clc1nc2ccccc2cc1/C=N/Nc1nc2ccccc2[nH]1 | inactive
O=C(Nc1ccncc1)c1cc2ccccc2o1 | inactive
CC(C)(C)C1CCC(=NNC(=O)c2cc3c(s2)CCCC3)CC1 (stereo unspecified) | inactive
COc1ccccc1NC1=C(NC(C)=O)C(=O)c2ccccc2C1=O | inactive
Cc1ccc(-c2n[nH]c(=S)n2-c2ccccc2)cc1 | inactive
O=C1c2ccccc2C(=O)N1c1cccc2cccnc12 | inactive
CC(=O)c1ccc(NC(=O)c2ccc3nc(-c4ccco4)c(-c4ccco4)nc3c2)cc1 | inactive
CCC(=O)OCCNc1cc(Sc2nccn2C)c2nonc2c1[N+](=O)[O-] | inactive
Cc1ccc(/C=C2/NC(=O)N(Cc3ccc(Br)cc3)C2=O)o1 | inactive
Cn1c(=O)c2c(nc(NCCO)n2CCc2ccccc2)n(C)c1=O | inactive
CCN(C(=O)COC(=O)c1cc(-c2ccc(C)o2)nc2ccccc12)C1CCS(=O)(=O)C1 (stereo unspecified) | inactive
Cc1cc(Cl)ccc1N=c1ssnc1Cl | inactive
O=C1c2ccccc2-c2onc3ccc(N4CCCC4)c1c23 | inactive
COc1ccc2c3c(cccc13)N(C)N=C2C | inactive
COc1ccc(N2C(=O)C(Cl)=C(Oc3cccc(OC)c3)C2=O)cc1 | inactive
Cc1nn(-c2ccc(Cl)cc2)c(Cl)c1/C=C(\C#N)C(N)=O | inactive
CC(=O)NC(=O)Nc1sc(=S)n(C)c1C | inactive
CCOc1cc(/C=N/NC(N)=O)ccc1OCC(=O)Nc1ccc(C)c(C)c1 | inactive
